Measured values taken from US4999344A, “Phosphatidyl treatment of rapidly proliferating cells” (priority 1988, dated 1991).

Assays:
[1] = tested on: tumor cells from cultured cell lines; settings: earlier articles; cited from earlier work
HT-144 [2] = assay: LD50 to tumor cells of various preparations of PI; format: cell-based; settings: Homo sapiens
Protocol: (§1) [methyl-^3 H]Thymidine (New England Nuclear) incorporation was carried out using 96-well plates (Costar). Thymidine incorporation was used as an assay for cell viability, since in the previous studies described in the Biochem. Biophys. Res. Commun. (1983) article, other methods of assessing cell viability, including microscopic evaluation in the presence of trypan blue, gave identical results. Fifty μl of cell suspension (4×10^5 cells/ml) were added to duplicate wells. Approximately 18 hours later 25 μl of the PI-containing liposomes were added to give a final concentration of phospholipid of 200 μM (approximately, 14 nmol/2-3×10^4 cells). At various intervals after PI addition [^3 H]thymidine, 1 μCi/well was added and incubated with the cells for 3 hours. Cells were collected on glass fiber filter mats by a mechanical cell harvester (Skatron, Inc.) using a combination of scraping and fluid turbulence (saline). Filters were dried and the material was solubilized by incubation overnight with NCS tissue solubilizer and counted in the presence of Spectrafluor (Amersham).
(§2) Res Commun. article cited above. The LD50 values for some of the cell lines reported in the Biochem. Biophys. Res. Commun. article are compared with LD50 values obtained using Avanti plant PI or synthetic ([14 C]linoleoyl)PI.

N4TG1 = assay: Liposomal uptake by normal and tumor cells; format: cell-based, mouse; settings: tumor cells N4TG1
Protocol: (§3) Thymidine uptake is a method of assessing cell viability of cultured cells, and decreased thymidine uptake occurs as a result of cytotoxicity caused by contact with toxic substances. , MRC-5 normal embryonic lung fibroblasts; , W1-38SV/40 transformed embryonic human lung fibroblasts; .quadrature..quadrature., SK-N-MC human glioblastoma cells and , N4TG1 mouse neuroblastoma cells.
(§4) Cells were treated with liposomes containing synthetic preparations of PI (left frames) or PC (right frames) containing palmitic acid in the sn-1 position and either [^14 C]linoleic acid in the sn-2 position (FIGS. 5 and 5a) or [^14 C]arachidonic acid in the sn-2 position (FIGS. 6 and 6a) or [^14 C]oleic acid in the sn-2 position (FIGS. 7 and 7a). The liposomes were comprised of the indicated phospholipids (PI or PC) and cholesterol in a molar ratio of 2:1.
(§5) The data in Table 5 was obtained concomitantly with the toxicity studies in FIGS. 5-7a.

[3] = Sedimentation of liposomes by low speed / differential centrifugation; format: physicochemical; settings: label used as liposome marker
Source text: In both FIGS. 4a and 4b, pellets 1, 2, and 3 were obtained by differential centrifugation.

SK-N-MC [4] = assay: LD50 to tumor cells of various preparations of PI; format: cell-based; settings: Homo sapiens
Source text: as §3, with “FIGS. 5 through 7 a show comparisons of the effects of liposomes having varous phospholipids containing defined fatty acids on [^3 H-methyl]-thymidine uptake. Thymidine” for “Thymidine”
as §1, §2

N4TG1 Neuroblastoma = assay: LD50 to tumor cells of various preparations of PI; format: cell-based; settings: Mus musculus
Source text: as §3, with “FIGS. 5 through 7 a show comparisons of the effects of liposomes having varous phospholipids containing defined fatty acids on [^3 H-methyl]-thymidine uptake. Thymidine” for “Thymidine”
as §1, §2

WI-38/SV-40 [5] = assay: LD50 to tumor cells of various preparations of PI; format: cell-based; settings: Homo sapiens
Source text: as §3, with “FIGS. 5 through 7 a show comparisons of the effects of liposomes having varous phospholipids containing defined fatty acids on [^3 H-methyl]-thymidine uptake. Thymidine” for “Thymidine”
as §1, §2

MRC-5 = assay: Liposomal uptake by normal and tumor cells; format: cell-based; settings: normal cells MRC-5
Protocol: as §3, §4, §5

[6] = tested on: N4TG1 neuroblastoma cells; assay: Thymidine uptake (cell viability) by N4TG1 neuroblastoma cells incubated with liposomes; format: cell-based, mouse; settings: FIG. 1
Protocol: Plant PI(S) is from the Sigma Chemical Company and plant PI(A) is from Avanti Polar Lipids, Inc. and ([^14 C]linoleoyl)PI is the synthetic PI.
FIGS. 3a and 3b show the effect of increasing the molar fraction of synthetic PI or animal PI in liposomes on (a) thymidine uptake (FIG. 3a) and myo-inositol uptake (FIG. 3b) by N4TG1 neuroblastoma cells, .circle. 100 μm PI, 200 μm PI, 300 μm PI. Cells were incubated with liposomes made up of the various combinations indicated (mol %) of ([^14 C]linoleoyl)PI and animal PI.
FIGS. 9a, b, c, and d show the effect of inhibitors on PI toxicity to tumor cells.
(§6) Lipids were dried and resuspended exactly as described previously in the Biochem. Biophys. Res. Commun. article. In the use of ([^14 C]linoleoyl)PI, ([^14 C]oleoyl)PI, or ([^14 C]arachidonoyl)PI the phospholipids were used in a 2:1 molar combination with cholesterol. Cholesterol was included in the liposomes in order to minimize the net transfer of cholesterol into or out of the cells. ([^3 H]myo-Inositol)PI was used as a tracer (1%) with bovine liver PI as the bulk phospholipid carrier for forming liposomes. [^3 H]Linoleic acid was used as a tracer (4%) in liposomes containing linoleic acid:PI (yeast or animal): cholesterol, 2:1. It was shown that it is not necessary to have cholesterol present to observe the cytotoxicity.
The N4TG1 mouse neuroblastoma cell line was obtained from Dr. Peter Chiang (Walter Reed Army Institute of Research) and cultured using Dulbecco's minimal essential medium (MEM: Grand Island Biological Co.) containing 10% fetal bovine serum. Cells were routinely started from frozen cultures every 6 weeks in order to assure that the cells used were from low passage cultures.
as §1
In FIGS. 1 and 2 the curves were quite reproducible and representative experiments are shown. Because of fluctuations (<5%) in control values, the data were "normalized" by comparison with daily controls and expressed as "percentage of control in absence of PI." Typical values for uptake of [^3 H]thymidine by controls are shown in the inserts in FIGS. 1 and 2.

SK-N-MC [7] = assay: Liposomal uptake by normal and tumor cells; format: cell-based, human; settings: tumor cells SK-N-MC
Protocol: as §3, §4, §5

WI-38/SV-40 [8] = assay: Liposomal uptake by normal and tumor cells; format: cell-based, human
Protocol: as §3, §4, §5

HT-144 [9] = assay: Liposomal uptake by normal and tumor cells; format: cell-based, human; settings: tumor cells HT-144
Protocol: as §4, §5

[10] = tested on: N4TG1 neuroblastoma cells; assay: Fate of liposomal PI after incubation with N4TG1 neuroblastoma cells; format: in vitro ADME, mouse
Source text: as §6, with “It was shown that it is not necessary to have cholesterol present to observe the cytotoxicity.” left out
In order to extract lipids, methanol and chloroform were added to cell homogenates to obtain a single phase of CHCl3 :CH3 OH:H2 O (1:2:1 8, v/v) containing 0.1M HCl, according to Bligh and Dyer in Can. […] The lipid compositions of the cell extracts were determined by thin layer chromatography on silica gel precoated sheets (E. M. Reagents; E. Merck, FRG) using the following solvent systems: (a) chloroform:methanol: acetic acid:water, 25:15:4:2 (v/v) (used for phospholipid separation): (b) 1-propanol:4.3M ammonia containing 10 mM EDTA, 65:35 (v/v) (used for PIP and PIP2 separations); and (c) chloroform:acetone, 1:1 (v/v) (used for DG and fatty acid separations). […]

Human marrow CFV-GM = assay: Colony forming units of granulocytes and monocytes; format: cell-based; settings: Monocyte, 192 h
[11] = tested on: multi-drug resistant MCF-7 ADR^R breast cancer cells; assay: TCA-precipitable 2-[3H]methylthymidine incorporation; format: cell-based; settings: thymidine incorporation
Protocol: MCF-7 cells were continuously exposed to increasing concentrations of adriamycin resulting in multidrug-resistance (mdr) as a stable genetic trait (Batist et al., J. Biol. Chem. (1986) 261:[…]). The mdr cells are referred to as ADR^R cells. MCF-7 WT (wild-type) and ADR^R cells were plated at 1000 cells/well (9.6 cm^2) in RPMI 1640 supplemented with 10% fetal bovine serum (day 1). Plant PI (0.5-150 μM) in the form of multilamellar vesicles (Jett and Alving, in Methods in Enzymology 141B (eds. Conn. P.M. and Means A.R.) 459-466, Academic Press, Orlando, FL 1987) or adriamycin (1-2000 nM) was added to the cultures on day 2. At day 8-10, the fluid was removed and clones were fixed, stained and counted. Colonies were scored positive if >40 cells/clone Adriamycin (10-500 nM) or plant PI (20-200 μM) was added at the time of cell plating. At day 8-10, the colony forming units of granulocytes and monocytes (CFV-GM) were counted. The results were the average of triplicate experiments.
In order to further assess cell viability between wild-type (MCF-7 wild-type cell line) (WT) and multi-drug resistant MCF-7 ADR^R (MDR^R) breast cancer cells, tests involving TCA-precipitable 2-[^3 H]methylthymidine incorporation were employed. MCF-7 WT and ADR^R cells were plated (Day 1) at 1500 cells/well in 96-well cluster plates. […] Results were expressed as the geometric mean of triplicate cultures.

[12] = tested on: MCF-7 wild-type (WT) breast cancer cells; assay: as above; format: cell-based; settings: thymidine incorporation
Protocol: In order to further assess cell viability between wild-type (MCF-7 wild-type cell line) (WT) and multi-drug resistant MCF-7 ADR^R (MDR^R) breast cancer cells, tests involving TCA-precipitable 2-[^3 H]methylthymidine incorporation were employed. MCF-7 WT and ADR^R cells were plated (Day 1) at 1500 cells/well in 96-well cluster plates. On Day 2, phospholipid preparations were added to triplicate cultures. On Day 7, 2-[^3 H]methylthymidine was added and the cells harvested as described (Jett et al., Cancer Res. (1985) 45:4810-4815), using 5% TCA as the wash buffer. Results were expressed as the geometric mean of triplicate cultures.

For `CCCCCCCC/C=C\CCCCCCCC(=O)O[C@H]1CC[C@@]2(C)C(=CC[C@H]3[C@@H]4CC[C@H]([C@H](C)CCCC(C)C)[C@@]4(C)CC[C@@H]32)C1` [cholesteryl oleate], the “anti-tumor effect / selective killing of tumor cells” value [1] is given as “reduced the anti-tumor effect”.

For `CCCCC/C=C\C/C=C\CCCCCCC[14C](=O)O[C@H](COC(=O)CCCCCCCCCCCCCCC)COP(=O)(O)O[C@@H]1[C@H](O)[C@H](O)[C@@H](O)[C@H](O)[C@H]1O` [([^14 C]linoleoyl)PI, sn-3-phosphatidyl(1-palmitoyl-2-[1'-^14 C]linoleoyl)myo-inositol], the IC50 (HT-144 [2]; 3 hours) was 25 µM, the IC50 (HT-144 [2]; 8 hours) was 25 µM and the Liposomal uptake (N4TG1) was 0.39 nMoles of phospholipid/1 × 10^5 cells. The “liposomes sedimented by low speed centrifugation” value [3] was 8%, the “liposomes which did not sediment” value [3] was 92% and the IC50 (SK-N-MC [4]; 3 hours) was 39 µM. For the same molecule, the IC50 (SK-N-MC [4]; 8 hours) was 38 µM, the IC50 (N4TG1 Neuroblastoma; 3 hours) was 25 µM and the IC50 (N4TG1 Neuroblastoma; 8 hours) was 25 µM. The IC50 (WI-38/SV-40 [5]; 3 hours) was 65 µM, the IC50 (WI-38/SV-40 [5]; 8 hours) was 35 µM and the Liposomal uptake (MRC-5) was 0.09 nMoles of phospholipid/1 × 10^5 cells. For the same molecule, the “effectiveness vs plant PI from Sigma” value [6] was “slightly more effective”, the Liposomal uptake (SK-N-MC [7]) was 0.45 nMoles of phospholipid/1 × 10^5 cells and the Liposomal uptake (WI-38/SV-40 [8]) was 0.39 nMoles of phospholipid/1 × 10^5 cells. The Liposomal uptake (HT-144 [9]) was 0.39 nMoles of phospholipid/1 × 10^5 cells and the “DG (diglycerides)” value [10] was 0.8.

Molecule `COc1cccc2c1C(=O)c1c(O)c3c(c(O)c1C2=O)C[C@@](O)(C(=O)CO)C[C@@H]3O[C@H]1C[C@H](N)[C@H](O)[C@H](C)O1` [adriamycin] has an IC50 (Human marrow CFV-GM) of 0.08 µM.

With `CCCCC/C=C\C/C=C\CCCCCCCC(=O)O[C@H](COC(=O)CCCCCCCCCCCCCCC)COP(=O)([O-])OCC[N+](C)(C)C` the toxicity [11] was “not as toxic as synthetic phosphatidylinositol containing the identical fatty acids” and the toxicity [12] was “not as toxic as synthetic phosphatidylinositol containing the identical fatty acids”.

For `CCCCCCCCCCCCCCCCCC(=O)OCC(COP(=O)([O-])OCC[N+](C)(C)C)OC(=O)CCCCCCCCCCCCCCCCC` (centres unmarked) [distearoyl phosphatidyl choline, reference compound], the toxicity [11] was “no toxicity” and the toxicity [12] was “no toxicity”.
